The text below walks through data of patent publication US9371295B2, “Compounds for use in the treatment of disorders that are ameliorated by inhibition of HDAC” (IRBM—Science Park S.p.A., priority 2012, dated 2016).

The subject of one data set is K562 cells. The data set is described as follows: Erythroid differentiation of K562 cells by benzidine staining. It counts as cell-based, human. The conditions noted are these: optimized concentration, mean ± SD of six experiments. The procedure: The biological activity of the compounds of the present application was evaluated by examining the capacity to modulate the expression of γ-globin genes in the human K562 cell line, which is capable of differentiating in the erythroid manner by expressing genes for γ-globin if treated with modifiers of the biological response that are suitable for the purpose (Bianchi et al, J. Haematol., 113, 4, p. 951-961, 2001). The human K562 cells were cultured in RPMI 1640 medium (Sigma, St Louis, Mo., USA) supplemented with 10% foetal bovine serum (FBS; Analitical de Mori, Milan, Italy), 100 units/mL penicillin and 100 μg/mL streptomycin. Cell growth was determined according to cell number/ml, using a cell counter (Coulter Electronics, Hialeah, Fla., USA). For experiments, K562 cell cultures were initiated at 3×10^4/mL and the chemical inducers at the indicated concentrations added. Following 3-5 days incubation without a medium change erythroid differentiation was determined by staining the cells in a solution containing 0.2% benzidine in 0.5 M glacial acetic acid, 10% H2O2. Benzidine positivity indicates the presence of intracellular Hb.
The erythroid differentiation of K562 cells was investigated following treatment with selected compounds of the invention. The effect on cell proliferation was first determined for all tested molecules by culture of K562 cells in the presence of increasing concentration of the compounds. The cell number per sample was then determined after 3, 4 and 5 days. The IC50 values reported in Table 3 for the antiproliferative effect were calculated from the concentration of the compounds necessary to decrease the cell number to 50% of the values obtained in control untreated K562 cell cultures, after a 5 days culture period. Erythroid differentiation was measured by benzidine staining after 5, 6 and 7 days of cell culture and by quantitative reverse transcriptase polymerase-chain reaction (RT-qPCR) to quantify the expression of γ-globin mRNA. Different concentrations of tested compounds were employed because of their differing antiproliferative effects; accordingly, concentrations were chosen to maximize the erythroid induction effect without extensive reduction of cell viability. In Table 3 the % of benzidine positive cells and the increase in γ-globin mRNA assayed by RT-qPCR after 6 days of culture period are reported.
Table 4 reports induction of erythroid differentiation in K562 cells treated with an optimized concentration of the compound 2 in comparison with known inducers. Compound 2 is able to stimulate an increase of the proportion of benzidine-positive (hemoglobin producing) K562 cells. This is associated with an increase of the expression of γ-globin mRNA.

The test system of data set [1] is human γ-globin promoter (EGFP reporter) in K562 cells. The data set is described as follows: HbF activation assay on K562 (EGFP/RFP reporter model system for screening of inducers of fetal hemoglobin). It counts as cell-based. Particulars: 60 hours. In a few lines: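 K562 cells stably carrying EGFP under the human γ-globin promoter and far-red FP under the β-globin promoter, with the LCR, were seeded at 1000 cells/well. Cells were exposed to compounds (0.25% DMSO final) for 60 h at 37 °C. Fluorescence was read by plate cytometry, normalized to Hoechst nuclei count, which also indicated proliferation or death.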

For a further data set, the system named is HDAC in Hela cells. Kind of data set: HDAC Hela Cell Based assay.
Another data set addresses T1, HDAC1 (Homo sapiens, UniProt Q13547).
T1 construct: made in house
Kind of data set: HDAC1 assay (Fluor-de-Lys fluorescent deacetylase assay). The class given is biochemical. The conditions noted are these: read-out: hHDAC IC50. In a few lines:
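Serially diluted compounds were pre-incubated with purified FLAG-tagged HDAC1 (1-2 nM final; from transfected HeLa cells) or HeLa nuclear extract, then given the Fluor-de-Lys acetyl-lysine substrate/developer; deacetylation read as fluorescence. Reactions were stopped with TSA (3 uM final).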

The nature of data set [2]: Rat PK studies, oral dose. It counts as in vivo, Sprague-Dawley rats. Particulars: male, Sprague-Dawley, plasma, po 10 mg/kg. On the procedure: Rats Male Sprague-Dawley rats (250-350 g) were used for the absorption disposition studies. In each rat an indwelling cannula was implanted in the right jugular vein for blood sampling. The surgery was performed under light anaesthesia (Ketamine-Xilazine (85 mg/kg and 2.5 mg/kg respectively i.m.) one day prior the experiment). During the kinetic study, all animals were housed individually in plastic metabolism cages, and were unrestrained throughout the experiment. Compounds (6 mg/mL) were dissolved in 20% DMSO/60% PEG400/20% water for intravenous administration, and dissolved or suspended in 1% methylcellulose for oral administration (2 mg/ml). After an overnight fast, the rats received an i.v. (via caudal vein) or an oral dose of the compound. Blood samples were collected at different times point after dosing. Plasma was separated immediately after blood sampling by centrifugation, and the plasma samples were kept frozen (−20° C.) until assayed by LC/MS/MS.
Analytical procedures: Plasma samples were extracted using Liquid Handling Robot MultiProbe Packard by protein precipitation with acetonitrile. Then the samples were centrifuged (3000 rpm×15 min at 4° C.) and the supernatant transferred and dried under nitrogen. The samples were reconstituted in water/acetonitrile 90/10 and then injected directly into an HPLC column. Sample analyses were performed using a an API 3000 or/and API 2000 or/and API 4000 Mass Spectrometer interfaced via the Turbo Ion Spray (ESI)/APCI to an LC system consisting of an HTS PAL CTC autosampler and an Agilen HP 1100 Binary Pump. The results are calculated using Analyst Software linear regression with 1/x*x weighting. The Assay Precision was calculated for the Quality Controls by Watson Lims database.
Pharmacokinetic Analysis: The plasma clearance (CLp) of the compounds were calculated (using Watson PK program) as the dose divided by the area under the plasma concentration-time curve from time zero to infinity (AUC0-∞). The apparent half-life was estimated from the slope of the terminal phase of the log plasma concentration-time data. The volume of distribution (Vdss) was determined using the following noncompartmental method: Vdss=(Dose IV×AUMC)/(AUC0-∞)2
where AUMC is the total area under the first moment of the drug concentration time curve from time zero to infinity. Bioavailability was estimated as the AUC0-∞ ratio following oral and intravenous administration, normalized for differences in dose.

Data set [3] in a line: Intrinsic clearance in pooled mouse liver microsomes. The class given is in vitro ADME. The conditions noted are these: pH 7.4. On the technique in general: Liver microsomes are vesicles of endoplasmic reticulum, rich in cytochrome P450 enzymes.
Data set [4] can be described thus: Intrinsic clearance in pooled human liver microsomes. It counts as in vitro ADME. The conditions noted are these: pH 7.4.
Data set [5] can be described thus: Intrinsic clearance in pooled rat liver microsomes. It counts as in vitro ADME. The conditions noted are these: pH 7.4. The procedure:
Assays were performed in presence of 0.5 mg/ml of microsomal protein, with a NADPH-generating system (1 mM NADP, 2.5 mM glucose 6-phosphate and 2 U/ml glucose 6-phosphate dehydrogenase) in 100 mM potassium phosphate buffer containing 3.3 mM MgCl2 (pH 7.4). Tested compounds were stored in 10 mM DMSO solution and incubated at 1 μM final concentration (final DMSO concentration in incubation less than 0.1%). Microsomes and substrates were preincubated at 37° C. for 5 min and then the enzymatic reactions were initiated by the addition of cofactors and incubated at 37° C. for up to 90 min. Incubations were terminated by the addition of an equivalent volume of cold acetonitrile containing I.S. Control incubations, where the substrate was incubated in the same buffer system containing pRLM without the NADPH-generating system, were also run.

Data set [6] is described as follows: Mouse in vivo pharmacokinetics, oral dose. Particulars: plasma. The procedure:
Compounds of the invention were evaluated in in vitro and in vivo pharmacokinetic studies.

Another data set deals with human γ-globin gene. The conditions noted are these: transgenic mice; Cao, H Exp. Hematol. 2005; cited from earlier work.

The structures appear in SMILES notation.

T1 sequence (Q13547 whole entry): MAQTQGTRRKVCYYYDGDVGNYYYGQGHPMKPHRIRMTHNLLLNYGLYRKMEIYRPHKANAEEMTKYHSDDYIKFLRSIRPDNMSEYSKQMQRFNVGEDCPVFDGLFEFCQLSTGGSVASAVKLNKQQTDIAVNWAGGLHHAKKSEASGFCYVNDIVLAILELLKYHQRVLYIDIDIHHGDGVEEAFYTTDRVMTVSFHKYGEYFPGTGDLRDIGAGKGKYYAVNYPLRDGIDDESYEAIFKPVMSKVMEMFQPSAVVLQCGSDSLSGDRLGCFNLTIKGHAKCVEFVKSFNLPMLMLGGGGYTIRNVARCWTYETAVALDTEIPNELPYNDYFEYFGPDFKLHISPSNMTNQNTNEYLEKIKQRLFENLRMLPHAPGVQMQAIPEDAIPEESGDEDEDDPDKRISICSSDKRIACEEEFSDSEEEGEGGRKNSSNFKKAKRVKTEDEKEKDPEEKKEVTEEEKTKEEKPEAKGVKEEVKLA

For the compound `O=c1ccc2ccc3occc3c2o1` [Angelicin, reference compound], the “Benzidine positive cells (%)” value with K562 cells was determined as 62 ± 8.5%.
The same measure, in the same setting: in the case of `CCCC(=O)O` [Butyric acid, reference compound] it was 32 ± 6.4%; in that of `N.N.[Cl][Pt][Cl]` [Cisplatin, reference compound], 63 ± 8.5%.
As to `CCC(=O)CCCCC[C@H](NC(=O)C12CCN(CC1)CC2)c1ncc(-c2cc3ccccc3nc2OC)o1` [Compound 41, (S)-N-(1-(5-(2-methoxyquinolin-3-yl)oxazol-2-yl)-7-oxononyl)quinuclidine-4-carboxamide], the EC50 – broadly, the concentration at which the effect is half-maximal – in data set [1] is greater than 1000 nM. The concentration for half-maximal inhibition (IC50) with HDAC in Hela cells and on HDAC1 was less than 100 nM each time. In [2], the AUC (in general, the area under the concentration-time curve, a measure of exposure) came out at 10.1 µM·h. Further, the highest concentration (Cmax) (as a rule, the maximum level reached in the sampled fluid or tissue) in data set [2] was 470 nM.
Take `CCC(=O)CCCCC[C@@H](NC(=O)C1CN(C)C1)c1ncc(-c2cc3ccccc3nc2OC)o1` [Compound 42, (R)-N-(1-(5-(2-methoxyquinolin-3-yl)oxazol-2-yl)-7-oxononyl)-1-methylazetidine-3-carboxamide]: the results for the intrinsic clearance (microsomal CLint) at 1 μM in data set [3], in data set [4] and in data set [5] were 15 µL/min/mg, 3 µL/min/mg and 21 µL/min/mg, respectively. This compound gave an EC50 in data set [1] greater than 1000 nM. Besides, the IC50 (in general, the concentration that gives 50% inhibition) with HDAC in Hela cells is 100 to 1000 nM; on HDAC1, less than 100 nM. In data set [6] (po 5 mg/kg), this compound returned an AUC of 5.93 µM·h. In data set [6] (po 5 mg/kg), this compound had a maximum concentration (Cmax) of 670 nM.
Take `CCC(=O)CCCCC[C@H](NC(=O)C1CN(C)C1)c1ncc(-c2cc3ccccc3[nH]c2=O)o1` [Compound 44, (S)-1-methyl-N-(7-oxo-1-(5-(2-oxo-1,2-dihydroquinolin-3-yl)oxazol-2-yl)nonyl)azetidine-3-carboxamide]: the microsomal CLint (usually a measure of how fast metabolising enzymes remove a compound, apart from limits set by blood flow) at 1 μM in data set [3] amounted to 11 µL/min/mg; in data set [4], 11 µL/min/mg; in [5], 17 µL/min/mg. This compound also registered an EC50 in [1] of 100 to 1000 nM. Besides, the IC50 in the data set with HDAC in Hela cells and at HDAC1 was less than 100 nM in each case.
Take `CCC(=O)CCCCC[C@H](NC(=O)C1CN(C)C1)c1nnc(-c2cc3ccccc3nc2OC)o1` [Compound 52, (S)-N-(1-(5-(2-methoxyquinolin-3-yl)-1,3,4-oxadiazol-2-yl)-7-oxononyl)-1-methylazetidine-3-carboxamide]: the microsomal CLint at 1 μM turned out to be 19 µL/min/mg in data set [3], 60 µL/min/mg in data set [4] and 30 µL/min/mg in data set [5]. For the same compound, the EC50 in data set [1] was greater than 1000 nM. Besides, the values for the IC50 in the data set with HDAC in Hela cells and on HDAC1 were 100 to 1000 nM and less than 100 nM, respectively. In addition, the exposure (AUC) is 1.75 µM·h in [6] (po 10 mg/kg) and 5.91 µM·h in data set [2]. Further, the Cmax in data set [6] (po 10 mg/kg) was determined as 630 nM; in data set [2], 580 nM.
As to `CCC(=O)CCCCC[C@H](NC(=O)CC1CN(C)C1)c1ncc(-c2cc3ccccc3nc2OC)o1` [Compound 108, (S)-N-(1-(5-(2-methoxyquinolin-3-yl)oxazol-2-yl)-7-oxononyl)-2-(1-methylazetidin-3-yl)acetamide], the EC50 in data set [1] was in the range of 100 to 1000 nM. Besides, the IC50 in the data set with HDAC in Hela cells and at HDAC1 was less than 100 nM in each case.
Regarding `Nc1ccn([C@@H]2O[C@H](CO)[C@@H](O)[C@@H]2O)c(=O)n1` [Cytosin arabinoside, reference compound], in the data set with K562 cells, the “Benzidine positive cells (%)” value came to 75 ± 5.4%.
In the case of `NC(=O)NO` [Hydroxyurea, reference compound], the “Benzidine positive cells (%)” value with K562 cells came out at 30 ± 7.5%.
The same measure, in the same setting: in the case of `Oc1ccc(C=Cc2cc(O)cc(O)c2)cc1` [Resveratrol, reference compound] it was 70 ± 8.5%.
Consider `CCCC(=O)NO` [butyryl hydroxamate], for which, in the data set with human γ-globin gene, the “increase of human γ/murine α-globin mRNA ratios” value is 33.9%.
Consider `CCC(=O)NO` [propionyl hydroxamate], for which, in the data set with human γ-globin gene, the “increase of human γ/murine α-globin mRNA ratios” value is listed as 71%.
